Results as given in patent publication US10111896B2, “Composition comprising a combination of DNA methylation inhibitor and a vitamin D receptor agonist for the treatment of drug resistant cancer or for the prevention of tumor relapse” (INSERM (Institut National de la Sante et de la Recherche …, priority 2014, dated 2018).

What was measured:
VDR promoter [1] = test: VDR promoter methylation analysis (methylation specific PCR) in primary AML samples; type: cell-based, human; details: 5-AZA 1 μM, 96 hours, vs not treated
Experimental: (§1) (A) Schematic representation of the VDR promoter. 5′-CpG-3′ islands present in VDR promoter (region ranging from −1035 to −75+ bp relative to the exon 1a transcriptional start codon) represented by dashes. […] Cell viability was evaluated by ATP assay. Results are presented as mean±SEM (ns not significant, *p<0.05, **p<0.01, ***p<0.001). […] HL60 were mock-treated or treated with 5-AZA (5 μM) or Vitamin D ([…]; as positive control) for 6 hours. (E) VDR or VDR-target genes (CAMP and CYP24A1) expression was evaluated by qPCR. Results are presented as mean±SEM. […] Primary cells (n=3 patients) were mock-treated or treated with 5-AZA (5 μM) or inecalcitol (INEC; […]) or both for 6 hours. VDR or VDR-target genes (CAMP and CYP24A1) expression was evaluated by qPCR. Results are presented as mean±SEM.

VDR promoter [2] = test: Methylation-sensitive high resolution melting (MS-HRM) analysis on THP-1 cells; type: cell-based, human; details: 5-AZA 1 μM, 96 hours
Experimental: as §1

[3] = tested on: wild-type MLL-ENL transformed cells; test: Cell viability by ATP assay, wild-type MLL-ENL transformed cells; type: cell-based, mouse; details: growing concentrations, 72 h
Experimental: as §1
(§2) Cells were seeded into 96-well plates, and then returned to the 37° C. incubator after the addition of different reactives or vehicle controls DMSO and ethanol if not otherwise stated. Celltiter Glo reagents (Promega) were added after 48 to 96 hours to determine cell viability by measuring ATP levels.

[4] = tested on: VDR-/- MLL-ENL transformed cells; test: Cell viability by ATP assay, VDR-/- MLL-ENL transformed cells; type: cell-based, mouse; details: growing concentrations, 72 h
Experimental: as §1, §2

[5] = tested on: VDR and VDR targeted genes (CAMP and CYP24A1) in HL60 cells; details: 6 hours
Experimental: as §1

[6] = tested on: VDR-target genes (CAMP and CYP24A1) in primary cells from AML patients; test: qPCR of VDR-target genes in leukemic cells from AML patients; type: cell-based, human; details: primary cells from AML patients (n=3); 5-AZA 5 μM, 6 hours
Experimental: as §1

U937 cells = test: Myeloid differentiation, CD11b and CD14 expression by flow cytometry in AML cell lines; type: cell-based, human; details: 5-AZA 5 μM, INEC 10 nM or both, 72 hours
Experimental: (A) Structural formulas of 1-25 dihydroxyvitamin D3 (VD) and VDR agonist Inecalcitol. http://www.chemblink.com/products/163217-09-2.htm. (B-D) Hypomethylating agents synergize with VDR agonists to promote myeloid differentiation and VDR activity. (B) U937 cells were mock-treated or treated with 5-AZA (5 μM), INEC (10 nM) or both for 72 hours. CD11b and CD14 expression was evaluated by flow cytometry. Results are presented in fold increase compared to vehicle Histograms are mean±SEM (n≥10; *p<0.05, **p<0.01, ***p<0.001). (C) HL60 cells were mock-treated or treated with 5-AZA (5 μM), with Vitamin D (300 nM) or INEC (10 nM) for 16 hours. Granocyte differentiation genes (PRTN3 and NE) and monocyte differentiation genes (TREML2 and SERPINB8) were accessed by qPCR. Results are presented as mean±SEM. (D) U937 cells were mock-treated or treated with 5-AZA (5 μM), INEC (10 nM) or both for 16 hours. VDR activation was evaluated by immunoblot using anti-phospho-VDR specific antibodies. VDR antibodies were used to control protein loading. (E-G) Combined Hypomethylating agents/VDR agonists therapy impairs tumor growth. (E) HL60 cells were mock-treated or treated with 5-AZA (5 μM), with INEC (10 nM) or both for 16 hours. […] (F) Expression of cell cycle regulator genes p15, p21 and p27 was evaluated by qPCR. […] The p-value was determined using the log-rank test. […]

U937 cells xenograft = test: Subcutaneous U937 tumor xenograft in athymic Nude mice; type: in vivo, mouse; details: 5-AZA 5 mg/kg i.p. five injections, INEC 20 μg per mice i.p. three times a week, vs control mice
Experimental: (B) U937 cells were mock-treated or treated with 5-AZA (5 μM), INEC (10 nM) or both for 72 hours. CD11b and CD14 expression was evaluated by flow cytometry. […] (C) HL60 cells were mock-treated or treated with 5-AZA (5 μM), with Vitamin D (300 nM) or INEC (10 nM) for 16 hours. Granocyte differentiation genes (PRTN3 and NE) and monocyte differentiation genes (TREML2 and SERPINB8) were accessed by qPCR. Results are presented as mean±SEM. (D) U937 cells were mock-treated or treated with 5-AZA (5 μM), INEC (10 nM) or both for 16 hours. VDR activation was evaluated by immunoblot using anti-phospho-VDR specific antibodies. VDR antibodies were used to control protein loading. […] (E) HL60 cells were mock-treated or treated with 5-AZA (5 μM), with INEC (10 nM) or both for 16 hours. Cell cycle analyses were performed by topro-3 labeling. Results are presented as mean±SEM. […] (F) Expression of cell cycle regulator genes p15, p21 and p27 was evaluated by qPCR. Results are presented as mean±SEM. (G) Kaplan-Meier plot of survival of mice treated with vehicle (PBS), 5-Acytidine (5 mg/kg intraperitoneally three times a week for five injections) and or INEC (20 μg per mice intraperitoneally, three time a week) after subcutaneous xenograft with U937 cells (n=8 tumors in each group). The p-value was determined using the log-rank test.
For tumor establishment, U937 or OCI-AML3 cells as indicated were mixed with Matrigel (BD Biosciences) (1:1, vol/vol) and injected subcutaneously (5×106/flank) into 10-week old female athymic Nude mice (Janvier laboratories, France). The mice were then injected i.p. with 5-Azacytidine (Celgene) (5 mg/kg on day 5, 7, 9, 11 and 13), Inecalcitol (Hybrigenics) (20 μg/day 3 times a week), and the combination of 5-Azacytidine and Inecalcitol or PBS as a vehicle control. The tumor growth was measured as previously described (Lepelletier 2007).

AML cells = test: Dose-response studies of AML cells differentiation; type: cell-based; details: compared with VD
[7] = tested on: FLT3-ITD-transformed bone marrow hematopoietic progenitors; test: Methylcellulose colony-forming and replating assay of FLT3-ITD transformed cells; type: cell-based, mouse
Experimental: (A) Inecalcitol decreases clonogenicity of FLT3-ITD of transformed cells. FLT3-ITD-transformed bone marrow hematopoietic progenitors were plated (30.000 cells/condition) in semisolid methylcellulose media containing cytokines (M-3434) containing or not INEC (10 nM) and scored following 7 to 10 days of culture. For re-plating assays 10-30.000 cells were plated (as indicated) in the presence or in the absence of INEC (10 nM) for each condition. Histograms represents numbers of colonies (mean±SEM of three independent experiments). Results are presented as mean±SEM of 4 independent experiments.
Colony formation by transformed or not mouse cells was examined with the use of Methocult medium (MethoCult GF M3434, StemCell Technologies). WT and VDR−/− cells infected were collected from BMT with oncogene or not and transferred to Methocult medium. Colonies were scored one week after plating for determination of the number of colonies. For serial plating cells were collected from methylcellulose, washed once in PBS, counted and replated in Methocult. For some experiments, 10 nM Inecalcitol (hybrigenics) was added to the culture medium.
LIC are a subset of leukemic cells in the bulk leukemia population bearing resistance to chemotherapy and therefore at the origin of relapses. Next we explored the efficacy of VDR agonist therapy in targeting LIC cells. To test this hypothesis we transduced bone marrow precursors from wild-type and VDR−/− mice with the FLT3-ITD construct. Cells were plated in semi-solid cultures containing INEC or vehicle as a control (FIG. 6A). […] To further examine is the INEC effect was reversible we divided 2nd replating INEC-treated cultures in two groups containing INEC or a vehicle.

FLT3-ITD/NPM1 AML blasts [8] = test: In vitro treatment of FLT3-ITD/NPM1 AML blasts, myeloid differentiation markers; type: cell-based
FLT3-ITD/NPM1 AML blasts [9] = test: Adoptive transfer of FLT3-ITD/NPM1 AML blasts and bone marrow cells in mice; type: in vivo, mouse
Description: In agreement, biological as well as immunophenotypic markers of leukemia cells were normalized in INEC-treated animals (FIG. 6C).

[10] = tested on: β-catenin in OCI-AML3 cells; test: β-catenin expression by flow cytometry in OCI-AML3 cells; type: cell-based, human; details: INEC 10, 100 or 1000 nM, 48 hours

Compound | VDR promoter methylation (VDR promoter [1]) | VDR promoter methylation (MS-HRM) (VDR promoter [2]) | cell sensitivity (viability) [3] | cell survival [4] | expression of VDR targeted genes (CAMP and CYP24A1) ([5]; 5-AZA 5 μM or Vitamin D 1000 μM) | VDR expression, fold increase ([5]; 5-AZA 5 μM) | VDR-target genes expression [6] | increase in myeloid differentiation (CD11b and CD14 expression), fold increase compared to vehicle (U937 cells) | survival of xenografted mice (U937 cells xenograft) | tumor size / tumor growth (U937 cells xenograft) | effectiveness to promote AML cells differentiation relative to VD (AML cells) | CFC after INEC wash-out ([7]; 2nd replating INEC-treated cultures switched to vehicle) | decrease in clonogenic potential compared to vehicle-treated cells ([7]; INEC 10 nM in methylcellulose, first plating) | colonies at the 4th round of plating ([7]; INEC 10 nM, serial replating) | expression of myeloid differentiation markers (FLT3-ITD/NPM1 AML blasts [8]) | leukemia development after passive transfer of BM cells from treated animals (FLT3-ITD/NPM1 AML blasts [9]; in comparison to mock-treated animals) | biological and immunophenotypic markers of leukemia cells in treated animals (FLT3-ITD/NPM1 AML blasts [9]; mouse, in vivo) | leukemia development in mice adoptively transferred with treated cells (FLT3-ITD/NPM1 AML blasts [9]; mouse, in vivo) | β-catenin pathway / expression [10]
Nc1ncn([C@@H]2O[C@H](CO)[C@@H](O)[C@H]2O)c(=O)n1 [5-AZA, 5-azacytidine] | decrease in methylation | revert VDR promoter methylation | sensitive | not altered | induced the expression | 2 fold | induces VDR-target genes expression | 1.3 fold | did not observe a significant effect | did not observe a significant effect |  |  |  |  |  |  |  |  | 
C[C@H](CC#CC(C)(C)O)[C@H]1CC[C@@H]2/C(=C/C=C3C[C@@H](O)C[C@H](O)C3)CCC[C@@]21C [INEC, 19-nor-14-epi-23-yne-1,25-(OH)2D3] |  |  |  |  |  |  |  | 4.5 fold | did not observe a significant effect | did not observe a significant effect | 1000 fold | reestablished CFC | 5 fold | virtually no colonies | increased expression | strongly delayed leukemia development | normalized | not able to develop leukemia | inhibits β-cathenin pathway
